Laboratory results reported in US7612084B2, “Amine derivatives for the treatment of asthma and COPD” (Pfizer Inc, priority 2006, dated 2009).

Key:
[1] = molecular target: human adrenergic B2 receptor (Homo sapiens, UniProt P07550); test: Whole cell luciferase reporter assay in CHO cells expressing the hB2 receptor (agonist potency); assay type: cell-based; conditions: 4 h incubation, read-out: EC50 - beta2
Description: Functional Assessment of Agonist Potency and Efficacy Using a Whole Cell Luciferase Reporter Assay in CHO Cells Expressing the hB2 Receptor.
CHO (Chinese Hamster Ovary) cells recombinantly expressing the human adrenergic B2 receptor and transfected with a luciferase enzyme reporter gene were maintained in growth media composed of F12:DMEM (Sigma D6421) containing 10% Foetal Bovine Serum (FBS: Sigma F03921) 10 μg/ml puromycin (Sigma N277698), 0.5 mg/ml Geneticin G418 (Sigma G7034) and 2 mM L-glutamine (Sigma G7513). The cells were kept in sterile conditions at 37° C., in an atmosphere containing 5% CO2.
hB2 Luciferase Assay Protocol
Cells were harvested for assay when they reached 80-90% confluency using enzyme free cell Dissociation Solution (Life technologies 13151-014) incubated with the cells for 5 min at 37° C. in an atmosphere containing 5% CO2. Detached cells were collected in warmed growth media (composition described above), and re-suspended in assay media (F12:DMEM (Sigma D6421) containing 1% Foetal Bovine Serum (FBS: Sigma F03921), 10 μg/ml puromycin (Sigma N277698), 0.5 mg/ml Geneticin G418 (Sigma G7034) and 2 mM L-glutamine (Sigma G7513))to give a viable cell concentration of 1×10^6 cells/ml. 10 ul of this suspension was added to each well of a tissue culture treated low volume 384 well plate (Greiner788073) and the plate incubated in an atmosphere containing 5% CO2 at 37° C. for 2 h. Concentration ranges of test compounds were prepared in phosphate Buffered Saline containing 0.05% pluronic-F127 (Sigma P2443) and 2.5% DMSO. 2 μl of each test concentration were added to the appropriate 384 plate well and returned to the incubator for a further 4 h. At the end of the incubation period 4 μl of Steady-Glo reagent (Steady-Glo Luciferase assay system (Promega E2520) was added to each well and the plate read immediately in a Leadseeker Plate reader (Amersham Bioscience) using a 660 nm filter. Concentration effect curves were plotted and EC50 values generated using a 4-parameter sigmoid fit using an in-house data analysis programme. Isoprenaline was run in every assay as a reference standard.

[2] = molecular target: human muscarinic M3 receptor (Homo sapiens, UniProt P20309); test: Whole cell β-lactamase reporter assay in CHO cells expressing the hM3 receptor (antagonist activity); assay type: cell-based; conditions: 80 nM carbamyl choline, IC50 converted to Ki by Cheng-Prusoff
Description: Functional Assessment of Antagonist Activity Using a Whole Cell β-Lactamase Reporter Assay in CHO Cells Expressing the hM3 Receptor.
CHO (Chinese Hamster Ovary) cells recombinantly expressing the human muscarinic M3 receptor were transfected with the NFAT_β-Lac_Zeo plasmid. Cells were grown in DMEM with Glutamax-1, supplemented with 25 mM HEPES(Life Technologies 32430-027), containing 10% FCS (Foetal Calf Serum; Sigma F-7524), […] Sodium pyruvate (Sigma S-8636), NEAA (non-Essential Amino Acids; Invitrogen 11140-035) and […] Zeocin (Invitrogen R250-01).
Cells were harvested for assay when they reached 80-90% confluency using enzyme free cell Dissociation Solution (Life technologies 13151-014) incubated with the cells for 5 min at 37° C. in an atmosphere containing 5% CO2. Detached cells were collected in warmed growth media and centrifuged at 200 rpm for 10 min, washed in PBS (Phosphate Buffered Saline; Life Technologies 14190-094) and centrifuged again as just described. The cells were re-suspended at 2×10^5 cells/ml in growth medium (composition as described above). 20 μl of this cell suspension was added to each well of a 384 well black clear bottomed plate (Greiner Bio One 781091-PFI). The assay buffer used was PBS supplemented with 0.05% Pluronic F-127 (Sigma 9003-11-6) and 2.5% DMSO. Muscarinic M3 receptor signalling was stimulated using 80 nM carbamyl choline (Aldrich N240-9) incubated with the cells for 4 h at 37° C./5% CO2 and monitored at the end of the incubation period using a Tecan SpectraFluor+plate reader (λ−excitation 405 nm, emission 450 nm and 503 nm). Compounds under test were added to the assay at the beginning of the 4 h incubation period and compound activity measured as the concentration dependent inhibition of the carbamyl choline induced signal. Inhibition curves were plotted and IC50 values generated using a 4-parameter sigmoid fit and converted to Ki values using the Cheng-Prusoff correction and the KD value for carbamyl choline in the assay.

human muscarinic M3 receptor, sequence (P20309 whole entry): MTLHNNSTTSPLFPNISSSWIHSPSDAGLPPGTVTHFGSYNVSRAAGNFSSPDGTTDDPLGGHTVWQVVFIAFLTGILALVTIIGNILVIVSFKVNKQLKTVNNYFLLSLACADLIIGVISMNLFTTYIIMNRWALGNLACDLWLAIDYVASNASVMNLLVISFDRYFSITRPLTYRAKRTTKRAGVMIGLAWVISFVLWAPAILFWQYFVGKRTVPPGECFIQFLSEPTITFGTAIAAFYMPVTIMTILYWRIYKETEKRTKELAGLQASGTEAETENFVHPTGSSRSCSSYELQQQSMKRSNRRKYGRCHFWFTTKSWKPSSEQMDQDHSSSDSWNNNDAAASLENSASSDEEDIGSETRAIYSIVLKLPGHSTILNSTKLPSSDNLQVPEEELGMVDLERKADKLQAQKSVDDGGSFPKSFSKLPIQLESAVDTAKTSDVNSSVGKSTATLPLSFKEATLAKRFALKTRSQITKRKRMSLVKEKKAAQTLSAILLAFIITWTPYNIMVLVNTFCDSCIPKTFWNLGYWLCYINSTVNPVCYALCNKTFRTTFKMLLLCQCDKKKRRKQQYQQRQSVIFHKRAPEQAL
human adrenergic B2 receptor, sequence (P07550 whole entry): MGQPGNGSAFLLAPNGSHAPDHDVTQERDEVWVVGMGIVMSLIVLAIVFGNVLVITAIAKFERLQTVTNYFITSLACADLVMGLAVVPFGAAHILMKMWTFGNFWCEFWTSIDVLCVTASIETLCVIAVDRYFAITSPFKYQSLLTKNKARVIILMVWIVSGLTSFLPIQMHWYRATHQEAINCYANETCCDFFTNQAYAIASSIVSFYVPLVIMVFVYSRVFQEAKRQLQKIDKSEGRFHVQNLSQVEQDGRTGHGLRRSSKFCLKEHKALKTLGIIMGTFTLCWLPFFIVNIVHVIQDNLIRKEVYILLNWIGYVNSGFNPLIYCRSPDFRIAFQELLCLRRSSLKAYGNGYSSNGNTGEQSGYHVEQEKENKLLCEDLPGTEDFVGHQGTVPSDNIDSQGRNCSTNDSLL

Compound | EC50 [1] [nM] | Ki [2] [nM]
CC(C)N(CC[C@H](c1ccccc1)c1cc(CCCCCCCCCCNC[C@H](O)c2ccc(O)c(NS(C)(=O)=O)c2)ccc1O)C(C)C [Example 1, N-(5-{(1R)-2-[(10-{3-[(1R)-3-(diisopropylamino)-1-phenylpropyl]-4-hydroxyphenyl}decyl)amino]-1-hydroxyethyl}-2-hydroxyphenyl)methanesulfonamide] | 0.88 | 3.4
CC(C)N(CC[C@H](c1ccccc1)c1cc(CCCCOc2ccc(CCNC[C@H](O)c3cc(O)cc(O)c3)cc2)ccc1O)C(C)C [Example 9] | 4.8 | 1.1
CC(C)N(CC[C@H](c1ccccc1)c1cc(OCCCCCCCNC[C@H](O)c2ccc(O)c(NS(C)(=O)=O)c2)ccc1O)C(C)C [Example 4, N-(5-{(1R)-2-[(7-{3-[(1R)-3-(diisopropylamino)-1-phenylpropyl]-4-hydroxyphenoxy}heptyl)amino]-1-hydroxyethyl}-2-hydroxyphenyl)methanesulfonamide] | 1.3 | 0.28
CC(C)N(CC[C@H](c1ccccc1)c1cc(CCOc2cccc(CCNC[C@H](O)c3ccc(O)c(CO)c3)c2)ccc1O)C(C)C [Example 11, 2-[(1R)-3-(diisopropylamino)-1-phenylpropyl]-4-(2-{3-[2-({(2R)-2-hydroxy-2-[4-hydroxy-3-(hydroxymethyl)phenyl]ethyl}amino)ethyl]phenoxy}ethyl)phenol] | 2.2 | 1.5
CC(C)N(CC[C@H](c1ccccc1)c1cc(CCCOc2ccc(CCNC[C@H](O)c3ccc(O)c(NS(C)(=O)=O)c3)cc2)ccc1O)C(C)C [Example 2, N-{5-[(1R)-2-({2-[4-(3-{3-[(1R)-3-(diisopropylamino)-1-phenylpropyl]-4-hydroxyphenyl}propoxy)phenyl]ethyl}amino)-1-hydroxyethyl]-2-hydroxyphenyl}methanesulfonamide] | 0.32 | 1.1
CC(C)N(CC[C@H](c1ccccc1)c1cc(CCCCOc2ccc(CCNC[C@H](O)c3ccc(O)c4[nH]c(=O)ccc34)cc2)ccc1O)C(C)C [Example 8, 5-[(1R)-2-({2-[4-(4-{3-[(1R)-3-(diisopropylamino)-1-phenylpropyl]-4-hydroxyphenyl}butoxy)phenyl]ethyl}amino)-1-hydroxyethyl]-8-hydroxyquinolin-2(1H)-one] | 0.035 | 
CC(C)N(CC[C@H](c1ccccc1)c1cc(CCOc2cccc(CCNC[C@H](O)c3ccc(O)c(NS(C)(=O)=O)c3)c2)ccc1O)C(C)C [Example 10, N-{5-[(1R)-2-({2-[3-(2-{3-[(1R)-3-(diisopropylamino)-1-phenylpropyl]-4-hydroxyphenyl}ethoxy)phenyl]ethyl}amino)-1-hydroxyethyl]-2-hydroxyphenyl}methanesulfonamide] | 0.26 | 1.1
CC(C)N(CC[C@H](c1ccccc1)c1cc(CCCCOc2ccc(CCNC[C@H](O)c3ccc(O)c(NS(C)(=O)=O)c3)cc2)ccc1O)C(C)C [Example 3, N-{5-[(1R)-2-({2-[4-(4-{3-[(1R)-3-(Diisopropylamino)-1-phenylpropyl]-4-hydroxyphenyl}butoxy)phenyl]ethyl}amino)-1-hydroxyethyl]-2-hydroxyphenyl}methanesulfonamide] | 0.14 | 1.4
CC(C)N(CC[C@H](c1ccccc1)c1cc(CCCCOc2ccc(CCNC[C@H](O)c3ccc(O)c(NC=O)c3)cc2)ccc1O)C(C)C [Example 7, N-{5-[(1R)-2-({2-[4-(4-{3-[(1R)-3-(diisopropylamino)-1-phenylpropyl]-4-hydroxyphenyl}butoxy)phenyl]ethyl}amino)-1-hydroxyethyl]-2-hydroxyphenyl}formamide] | 0.049 | 2.1
CC(C)N(CC[C@H](c1ccccc1)c1cc(CCCCOCCCCCCNC[C@H](O)c2ccc(O)c(NS(C)(=O)=O)c2)ccc1O)C(C)C [Example 6, N-{5-[(1R)-2-{[6-(4-{3-[(1R)-3-(Diisopropylamino)-1-phenylpropyl]-4-hydroxyphenyl}butoxy)hexyl]amino}-1-hydroxyethyl]-2-hydroxyphenyl}methanesulfonamide] | 0.19 | 2.4

Now from value to compound:

EC50 [1] [nM] | Ki [2] [nM] | Compound
0.57 | 3 | CC(C)N(CC[C@H](c1ccccc1)c1cc(CCCCCOc2ccc(CCNC[C@H](O)c3ccc(O)c(NS(C)(=O)=O)c3)cc2)ccc1O)C(C)C [Example 17, N-(5-{(1R)-2-[(2-{4-[(5-{3-[(1R)-3-(diisopropylamino)-1-phenylpropyl]-4-hydroxyphenyl}pentyl)oxy]phenyl}ethyl)amino]-1-hydroxyethyl}-2-hydroxyphenyl)methanesulfonamide]
13.8 | 0.26 | CC(C)N(CC[C@H](c1ccccc1)c1cc(CCOc2ccc(CCNC[C@H](O)c3cc(O)cc(O)c3)cc2)ccc1O)C(C)C [Example 12, 5-[(1R)-2-({2-[4-(2-{3-[(1R)-3-(diisopropylamino)-1-phenylpropyl]-4-hydroxyphenyl}ethoxy)phenyl]ethyl}amino)-1-hydroxyethyl]benzene-1,3-diol]
0.22 |  | CC(C)N(CC[C@H](c1ccccc1)c1cc(CCCCOc2ccc(CCNC[C@H](O)c3ccc(O)c(CO)c3)cc2)ccc1O)C(C)C [Example 18, 2-[(1R)-3-(diisopropylamino)-1-phenylpropyl]-4-(4-{4-[2-({(2R)-2-hydroxy-2-[4-hydroxy-3-(hydroxymethyl)phenyl]ethyl}amino)ethyl]phenoxy}butyl)phenol]
0.078 | 0.38 | CC(C)N(CC[C@H](c1ccccc1)c1cc(CCOc2ccc(CCNC[C@H](O)c3ccc(O)c(NC=O)c3)cc2)ccc1O)C(C)C [Example 13, N-{5-[(1R)-2-({2-[4-(2-{3-[(1R)-3-(diisopropylamino)-1-phenylpropyl]-4-hydroxyphenyl}ethoxy)phenyl]ethyl}amino)-1-hydroxyethyl]-2-hydroxyphenyl}formamide]
0.054 | 0.76 | CC(C)N(CC[C@H](c1ccccc1)c1cc(CCOc2ccc(CCNC[C@H](O)c3ccc(O)c4[nH]c(=O)ccc34)cc2)ccc1O)C(C)C [Example 14, 5-[(1R)-2-({2-[4-(2-{3-[(1R)-3-(diisopropylamino)-1-phenylpropyl]-4-hydroxyphenyl}ethoxy)phenyl]ethyl}amino)-1-hydroxyethyl]-8-hydroxyquinolin-2(1H)-one]
0.028 | 0.39 | CC(C)N(CC[C@H](c1ccccc1)c1cc(CCOc2ccc(CC(C)(C)NC[C@H](O)c3ccc(O)c4[nH]c(=O)ccc34)cc2)ccc1O)C(C)C [Example 20, 5-[(1R)-2-({2-[4-(2-{3-[(1R)-3-(diisopropylamino)-1-phenylpropyl]-4-hydroxyphenyl}ethoxy)phenyl]-11-dimethylethyl}amino)-1-hydroxyethyl]-8-hydroxyquinolin-2(1H)-one]
0.25 | 0.06 | CC(C)N(CC[C@H](c1ccccc1)c1cc(CCOc2ccc(CCNC[C@H](O)c3ccc(O)c(CO)c3)cc2)ccc1O)C(C)C [Example 15, 2-[(1R)-3-(diisopropylamino)-1-phenylpropyl]-4-(2-{4-[2-({(2R)-2-hydroxy-2-[4-hydroxy-3-(hydroxymethyl)phenyl]ethyl}amino)ethyl]phenoxy}ethyl)phenol]
